Consider two molecules from publication PMC8204911 (ACS Pharmacology & Translational Science, 2021).

One assay concerns the target SARS-CoV-2 M^pro (Severe acute respiratory syndrome coronavirus 2, UniProt P0DTD1). As to conditions: at 20 μM, authors' previous screening; cited from earlier work.
In a further assay the target is T1, caspase-3 (Homo sapiens, UniProt P42574).
T1 sequence (P42574 29-175 limits assumed): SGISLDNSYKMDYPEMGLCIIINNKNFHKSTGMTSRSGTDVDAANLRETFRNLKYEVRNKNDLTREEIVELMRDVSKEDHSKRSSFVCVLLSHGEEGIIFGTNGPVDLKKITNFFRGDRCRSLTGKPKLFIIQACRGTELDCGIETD
T1 sequence (P42574 176-277 limits assumed): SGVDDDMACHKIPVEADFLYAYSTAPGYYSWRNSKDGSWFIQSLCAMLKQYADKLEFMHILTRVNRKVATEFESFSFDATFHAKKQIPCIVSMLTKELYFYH
Format: biochemical. The note with it: read-out: Caspase-3 IC50.

Molecules are shown by their SMILES. Residues, ends and D or L forms follow the SMILES beside them. *: point of attachment. Cbz = O=C(OCc1ccccc1)*; CH2F = FC*

Turning to `CCC[C@H](NC(=O)[C@@H]1[C@H]2CCC[C@H]2CN1C(=O)[C@@H](NC(=O)[C@@H](NC(=O)c1cnccn1)C1CCCCC1)C(C)(C)C)C(=O)C(=O)NC1CC1` [telaprevir], the “inhibition of M^pro enzymatic activity” value on SARS-CoV-2 M^pro is recorded as 31%.

With `COC(=O)C[C@H](NC(=O)[C@H](C)NC(=O)[C@@H](NC(=O)OCc1ccccc1)C(C)C)C(=O)CF` [Z-VAD-FMK] (Cbz-Val-Ala-Asp(OMe)-CH2F), the IC50 on caspase-3 is 100 ± 40 nM.
